Test results as given in patent publication US8481556B2, “Piperidinone carboxamide azaindane CGRP receptor antagonists” (Merck, Sharp & Dohms, Corp., priority 2010, dated 2013).
Counter-ions that a name gives are not always drawn. Ends that are not written are not given here.

How the values were obtained:
[1] = molecular target: T1, recombinant human CL receptor/RAMP1 (Homo sapiens, UniProt O60894+Q16602); experiment: Recombinant receptor binding assay (125I-hCGRP); settings: exemplary compounds of the invention
T1 construct: expressed in transfected cells; membranes used
T1 sequence (Q16602 23-461): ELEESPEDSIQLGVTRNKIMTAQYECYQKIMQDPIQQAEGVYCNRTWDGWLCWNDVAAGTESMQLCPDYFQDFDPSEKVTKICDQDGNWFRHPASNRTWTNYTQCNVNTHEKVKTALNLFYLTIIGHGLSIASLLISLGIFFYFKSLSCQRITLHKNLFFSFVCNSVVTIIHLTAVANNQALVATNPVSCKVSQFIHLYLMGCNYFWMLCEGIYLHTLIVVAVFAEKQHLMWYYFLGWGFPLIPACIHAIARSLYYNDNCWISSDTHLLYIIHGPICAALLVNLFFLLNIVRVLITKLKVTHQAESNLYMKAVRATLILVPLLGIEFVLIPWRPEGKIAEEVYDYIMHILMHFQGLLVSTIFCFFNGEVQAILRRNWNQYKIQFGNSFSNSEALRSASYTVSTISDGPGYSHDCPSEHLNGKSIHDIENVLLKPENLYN
T1 sequence (O60894 27-148): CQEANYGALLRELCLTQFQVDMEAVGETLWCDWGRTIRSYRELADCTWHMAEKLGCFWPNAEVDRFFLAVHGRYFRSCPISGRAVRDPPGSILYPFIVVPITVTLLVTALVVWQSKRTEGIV
Experimental: Human CL receptor (Genbank accession number L76380) was subcloned into the expression vector pIREShyg2 (BD Biosciences Clontech) as a 5′NheI and 3′ PmeI fragment. Human RAMP1 (Genbank accession number AJ001014) was subcloned into the expression vector pIRESpuro2 (BD Biosciences Clontech) as a 5′NheI and 3′NotI fragment. […] Cells were subcultured by treatment with 0.25% trypsin with 0.1% EDTA in HBSS. Stable cell line generation was accomplished by co-transfecting 10 μg of DNA with 30 μg Lipofectamine 2000 (Invitrogen) in 75 cm^2 flasks. CL receptor and RAMP1 expression constructs were co-transfected in equal amounts. Twenty-four hours after transfection the cells were diluted and selective medium (growth medium+300 μg/mL hygromycin and 1 μg/mL puromycin) was added the following day. A clonal cell line was generated by single cell deposition utilizing a FACS Vantage SE (Becton Dickinson). Growth medium was adjusted to 150 μg/mL hygromycin and 0.5 μg/mL puromycin for cell propagation.
The cell suspension was disrupted with a laboratory homogenizer and centrifuged at 48,000 g to isolate membranes. The pellets were resuspended in harvest buffer plus 250 mM sucrose and stored at −70° C. […] Scintillation fluid was added and the plates were counted on a Topcount (Packard).

migraine = settings: cited from earlier work
facial blood flow [2] = settings: marmoset, electrical stimulation of the trigeminal ganglion (Doods et al. 2000); cited from earlier work
middle meningeal artery = settings: rats, electrical stimulation of the dura mater, prior administration (Williamson et al. 1997); cited from earlier work
facial blood flow [3] = settings: rat, trigeminal ganglion stimulation (Escott et al. 1995); cited from earlier work

Compound: C[C@@H]1[C@H](c2cc(F)cc(F)c2F)C[C@H](NC(=O)c2cnc3c(c2)C[C@@]2(C3)C(=O)Nc3ncc(C#N)cc32)C(=O)N1CC(F)(F)F [Example 34]
- Ki [1]: 0.066 nM

Compound: O=C(N[C@@H]1CC[C@@H](c2cccc(F)c2F)CN(CC(F)(F)F)C1=O)N1CCC(n2c(=O)[nH]c3ncccc32)CC1 [telcagepant]
- antimigraine effectiveness (migraine; phase III clinical trials (Ho et al. 2008; Connor et al. 2009)): shown antimigraine effectiveness

Compound: C[C@@H]1[C@H](c2c(F)ccc(F)c2F)C[C@H](NC(=O)c2cnc3c(c2)C[C@@]2(C3)C(=O)Nc3ncc(F)cc32)C(=O)N1CC(F)(F)F [Example 33, (6S)-5′-Fluoro-N-[(3S,5S,6R)-6-methyl-2-oxo-1-(2,2,2-trifluoroethyl)-5-(2,3,6-trifluorophenyl)piperidin-3-yl]-2′-oxo-1′,2′,5,7-tetrahydrospiro[cyclopenta[b]pyridine-6,3′-pyrrolo[2,3-b]pyridine]-3-carboxamide hydrochloride]
- Ki [1]: 0.011 nM

Compound: NCCCC[C@H](NC(=O)[C@@H](Cc1cc(Br)c(O)c(Br)c1)NC(=O)N1CCC(N2Cc3ccccc3NC2=O)CC1)C(=O)N1CCN(c2ccncc2)CC1 [BIBN4096BS]
- effect on increase in facial blood flow (facial blood flow [2]): could be blocked
- effectiveness in treating acute attacks of migraine (migraine; clinical trials (Olesen et al. 2004)): effective in treating acute attacks of migraine

Compound: CGRP(8-37) (VTHRLAGLLSRSGGVVKNNFVPTNVGSKAF-NH2; ends and bridges not checked; UniProt P06881 90-119, looked up, fragment) [a peptide CGRP receptor antagonist]
- effect on increase of middle meningeal artery diameter (middle meningeal artery): blocked
- effect on increased facial blood flow (facial blood flow [3]): inhibited
